Assay results: ChEMBL document CHEMBL5329202, “New aryl-/heteroarylpiperazine derivatives of 1,7-dimethyl-8,9-diphenyl-4-azatricyclo[5.2.1.02,6]dec-8-ene-3,5,10-trione: Synthesis and preliminary studies of biological activities” (Bioorg Med Chem, 2023)

Columns and labels:
HepG2 = assay: Cytotoxicity against human HepG2 cells assessed as cell growth inhibition measured after 72 hrs by MTT assay; assay type: functional, cell-based; conditions: HepG2, 72 h
HCT-116 = assay: Cytotoxicity against human HCT-116 cells assessed as cell growth inhibition measured after 72 hrs by MTT assay; assay type: functional, cell-based; conditions: HCT-116, 72 h
K562 = assay: Cytotoxicity against human K562 cells assessed as cell growth inhibition measured after 72 hrs by MTT assay; assay type: functional, cell-based; conditions: K562, 72 h
MDA-MB-231 = assay: Cytotoxicity against human MDA-MB-231 cells assessed as cell growth inhibition measured after 72 hrs by MTT assay; assay type: functional, cell-based; conditions: MDA-MB-231, 72 h
[1] = Cytotoxicity against human HMEC-1 cells assessed as cell growth inhibition measured after 72 hrs by MTT assay; assay type: toxicity, cell-based
A549 = assay: Cytotoxicity against human A549 cells assessed as cell growth inhibition measured after 72 hrs by MTT assay; assay type: functional, cell-based; conditions: A549, 72 h
[2] = target: T1, 5-hydroxytryptamine receptor 1A (Rattus norvegicus) (UniProt P19327); assay: Agonist activity at Sprague-Dawley rat hippocampal membrane 5-HT1A receptor assessed as stimulation of [35S]GTPgammaS binding by measuring maximal efficacy measured after 90 mins by scintillation counter analysis relative to control; assay type: functional, cell membranes; conditions: Hippocampus, filed as agonist
T1 sequence (whole entry): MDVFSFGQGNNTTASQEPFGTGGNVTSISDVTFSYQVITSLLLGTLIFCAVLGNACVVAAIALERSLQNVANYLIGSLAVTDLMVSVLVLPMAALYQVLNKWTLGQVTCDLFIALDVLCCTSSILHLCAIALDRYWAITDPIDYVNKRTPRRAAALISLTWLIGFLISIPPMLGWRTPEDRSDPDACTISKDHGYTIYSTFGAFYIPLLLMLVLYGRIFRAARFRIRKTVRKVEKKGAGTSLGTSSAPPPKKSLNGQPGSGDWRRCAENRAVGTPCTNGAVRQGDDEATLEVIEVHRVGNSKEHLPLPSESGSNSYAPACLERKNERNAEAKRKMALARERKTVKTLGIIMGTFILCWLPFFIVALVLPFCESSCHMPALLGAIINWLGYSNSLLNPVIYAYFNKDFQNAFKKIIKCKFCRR

Work on COc1cccc2c1C(=O)c1c(O)c3c(c(O)c1C2=O)C[C@@](O)(C(=O)CO)C[C@@H]3O[C@H]1C[C@H](N)[C@H](O)[C@H](C)O1 [DOXORUBICIN] yielded an IC50 (HepG2) of 0.29 µM, an IC50 (HCT-116) of 0.96 µM and an IC50 (K562) of 0.21 µM. The IC50 (MDA-MB-231) was 0.12 µM, the IC50 at 72 h [1] was 0.5 µM and the IC50 (A549) was 0.24 µM.
CCCN(CCC)C1CCc2cccc(O)c2C1 (configuration not stated) showed an Emax [2] of 148%.
